The values below come from ChEMBL document CHEMBL3046378, “3-(6-Chloronicotinyl)-2-nitromethylene-thiazolidine as a New Class of Insecticide Acting against Lepidoptera Species” (1992).

Calls of active or inactive are those of the source. The rule behind the calls is not given here.

One test concerns Nephotettix cincticeps. Description: Insecticidal activity against Nephotettix cincticeps (green rice leafhopper) measured 5 days after artificial infestation. The class given is functional.
The test system of test [1] is Spodoptera litura. Nature of the test: Insecticidal activity against Spodoptera litura measured 5 days after artificial infestation. The class given is functional.
A further test relates to Plutella xylostella. Nature of the test: Insecticidal activity against Plutella xylostella (diamondback moth) measured 5 days after artificial infestation. Type of test: functional.
The next test has as its system Cnaphalocrocis medinalis. Nature of the test: Insecticidal activity against Cnaphalocrocis medinalis measured 5 days after artificial infestation. Type of test: functional.
The test system of test [2] is Spodoptera litura. Nature of the test: Insecticidal activity against Spodoptera litura at 1000 ppm measured 5 days after artificial infestation. The class given is functional, organism-based.

`O=[N+]([O-])/C=C1\CCCN1Cc1ccc(Cl)nc1`: the LC90 in the test on Nephotettix cincticeps worked out at 1.6 ppm; in the test with Spodoptera litura [1] it was 200 ppm.

On to `O=[N+]([O-])/N=C1\NCCN1Cc1ccc(Cl)nc1` [IMIDACLOPRID], for which the LC90 in the test with Plutella xylostella is on record as 200 ppm; in the test with Nephotettix cincticeps, 0.32 ppm; in the test on Spodoptera litura [1], 40 ppm; in the test with Cnaphalocrocis medinalis, 200 ppm.

With `O=[N+]([O-])C=C1NCCCS1`, the LC90 in the test with Plutella xylostella worked out at 1000 ppm; in the test on Nephotettix cincticeps it was 8 ppm; with Spodoptera litura [1], 40 ppm; in the test with Cnaphalocrocis medinalis, 200 ppm.

Regarding `O=[N+]([O-])/N=c1\sccn1Cc1ccc(Cl)nc1`, the LC90 in the test with Nephotettix cincticeps is 0.32 ppm; with Spodoptera litura [1], 1000 ppm.

In the case of `O=[N+]([O-])/C=C1\NCCS1` [2-(NITROMETHYLENE)THIAZOLIDINE], the result with Spodoptera litura [2] was inactive. Further, the LC90 with Nephotettix cincticeps was 1000 ppm.

For `O=[N+]([O-])/C=C1\NCCN1Cc1ccc(Cl)nc1`, the LC90 amounted to 40 ppm with Plutella xylostella, 0.32 ppm in the test with Nephotettix cincticeps, 8 ppm with Spodoptera litura [1] and 200 ppm in the test with Cnaphalocrocis medinalis.

On to `O=[N+]([O-])/C=C1\SCCN1Cc1ccc(Cl)nc1`, for which the LC90 stood at 1.6 ppm with Plutella xylostella, 0.32 ppm in the test with Nephotettix cincticeps, 1.6 ppm with Spodoptera litura [1] and 8 ppm with Cnaphalocrocis medinalis.

For the compound `O=[N+]([O-])/C=C1\OCCN1Cc1ccc(Cl)nc1`, the LC90 in the test with Nephotettix cincticeps came out at 8 ppm; in the test on Spodoptera litura [1] it was 1000 ppm.

In the case of `O=[N+]([O-])/N=C1\SCCN1Cc1ccc(Cl)nc1`, the LC90 in the test on Nephotettix cincticeps was 1.6 ppm; with Spodoptera litura [1], 200 ppm.
